# What was measured:
# galium [1] = assay: Test C preemergence; assay type: in vivo, Galium aparine; conditions: for Plant response rating (scale of 0 to 100 where 0 is no effect and 100 is complete control): Galium, preemergence; for Galium plant response rating (0 to 100): Preemergence, visual rating after 13 to 15 d
# Description: (§1) Seeds of plant species selected from blackgrass (Alopecurus myosuroides), ryegrass, Italian (Italian ryegrass, Lolium multiflorum), wheat (winter wheat, Triticum aestivum), galium (catchweed bedstraw, Galium aparine), corn (Zea mays), crabgrass, large (large crabgrass, Digitaria sanguinalis), foxtail, giant, (giant foxtail, Setaria faberii), johnsongrass (Sorghum halepense), lambsquarters (Chenopodium album), morningglory (Ipomoea coccinea), nutsedge, yellow (yellow nutsedge, Cyperus esculentus), pigweed (Amaranthus retroflexus), ragweed (common ragweed, Ambrosia elatior), soybean (Glycine max), barnyardgrass (Echinochloa crus-galli), oilseed rape (Brassica napus), waterhemp (common waterhemp, Amaranthus rudis), and velvetleaf (Abutilon theophrasti) were planted into a blend of loam soil and sand and treated preemergence with test chemicals formulated in a non-phytotoxic solvent mixture which included a surfactant. At the same time, plants selected from these crop and weed species and also chickweed (common chickweed, Stellaria media), oat, wild (wild oat, Avena fatua), and kochia (Kochia scoparia), were planted in pots containing Sunshine Redi-Earth® planting medium comprising spaghnum peat moss, vermiculite, starter nutrients and dolomitic limestone and treated with postemergence applications of test chemicals formulated in the same manner. Plants ranged in height from 2 to 18 cm (1- to 4-leaf stage) for postemergence treatments. […] A dash (-) response means no test result.
# barnyardgrass = assay: Test C preemergence; assay type: in vivo, Echinochloa crus-galli; conditions: for Plant response rating (scale of 0 to 100 where 0 is no effect and 100 is complete control): Barnyardgrass, preemergence; for Barnyardgrass plant response rating (0 to 100): Preemergence, visual rating after 13 to 15 d
# Description: as §1
# chickweed = assay: Test D postemergence; assay type: in vivo, Stellaria media; conditions: scale 0 to 100
# Description: (§2) Seeds of plant species selected from bluegrass (annual bluegrass, Poa annua), blackgrass (Alopecurus myosuroides), canarygrass (Phalaris minor), chickweed (common chickweed, Stellaria media), galium (catchweed bedstraw, Galium aparine), bromegrass, down (downy bromegrass, Bromus tectorum), Russian thistle (Salsola kali), field poppy (Papaver rhoeas), field violet (Viola arvensis), foxtail, green (green foxtail, Setaria viridis), deadnettle (henbit deadnettle, Lamium amplexicaule), ryegrass, Ital. (Italian ryegrass, Lolium multiflorum), kochia (Kochia scoparia), lambsquarters (Chenopodium album), oilseed rape (Brassica napus), pigweed (Amaranthus retroflexus), chamomile (scentless chamomile, Matricaria inodora), speedwell (bird's-eye speedwell, Veronica persica), barley, spring (spring barley, Hordeum vulgare), wheat, spring (spring wheat, Triticum aestivum), buckwheat, wild (wild buckwheat, Polygonum convolvulus), wild mustard (Sinapis arvensis), oat, wild (wild oat, Avena fatua), radish, wild (wild radish, Raphanus raphanistrum), […]), barley, winter (winter barley, Hordeum vulgare), and wheat, winter (winter wheat, Triticum aestivum) were planted into a silt loam soil and treated preemergence with test chemicals formulated in a non-phytotoxic solvent mixture which included a surfactant. At the same time, these species were planted in pots containing Sunshine Redi-Earth® planting medium comprising spaghnum peat moss, vermiculite, starter nutrients and dolomitic limestone and treated with postemergence applications of the test chemicals formulated in the same manner. Plants ranged in height from 2 to 18 cm (1- to 4-leaf stage). Treated plants and controls were maintained in a controlled growth environment for 14 to 21 d after which time all species were compared to controls and visually evaluated. […] A dash (-) response means no test result.
# field violet = assay: Test D postemergence; assay type: in vivo, Viola arvensis; conditions: scale 0 to 100
# Description: as §2
# crabgrass, large = assay: Test A postemergence; assay type: in vivo, Digitaria sanguinalis; conditions: Digitaria sanguinalis, post-emergence, 240 h, 0 to 100 scale (0 no effect, 100 complete control), approx. 10 d, read-out: Plant response rating, Crabgrass, Large
# How it was run: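 For preemergence, seeds were sown in a loam soil-sand blend and given a directed soil spray of test chemical in a non-phytotoxic solvent mixture with surfactant. For postemergence, plants in pots of the same blend were sprayed with the same formulation at the one- to two-leaf stage, 2 to 10 cm tall.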
# oilseed rape = assay: Test D postemergence; assay type: in vivo, Brassica napus; conditions: scale 0 to 100
# Description: as §2
# foxtail, green = assay: Test D preemergence; assay type: in vivo, Setaria viridis; conditions: for Plant response rating: Foxtail, Green: scale 0 to 100; for Plant response rating (0 to 100), Foxtail, Green: 16 g ai/ha, 0 is no effect, 100 is complete control
# Description: as §2
# ragweed = assay: Test A preemergence; assay type: in vivo, Ambrosia elatior; conditions: 0 to 100 scale (0 no effect, 100 complete control)
# How it was run: (§3)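 Seeds sown in loam soil–sand blend received a directed preemergence soil spray of test chemical in non-phytotoxic solvent with surfactant; postemergence plants, 2 to 10 cm at one- to two-leaf stage, were sprayed with the same formulation. Injury visually rated versus untreated controls after ~10 d in greenhouse, 0–100 scale.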
# galium [2] = assay: Test A postemergence; assay type: in vivo, Galium aparine; conditions: 0 to 100 scale (0 no effect, 100 complete control), approx. 10 d
# How it was run: as §3
Compound,Plant response rating (scale of 0 to 100 where 0 is no effect and 100 is complete control) (galium [1]; 125 g ai/ha),Plant response rating (scale of 0 to 100 where 0 is no effect and 100 is complete control) (galium [1]; 250 g ai/ha),Galium plant response rating (0 to 100) (galium [1]; 31 g ai/ha),Galium plant response rating (0 to 100) (galium [1]; 62 g ai/ha),Plant response rating (scale of 0 to 100 where 0 is no effect and 100 is complete control) (barnyardgrass; 125 g ai/ha),Plant response rating (scale of 0 to 100 where 0 is no effect and 100 is complete control) (barnyardgrass; 250 g ai/ha),Barnyardgrass plant response rating (0 to 100) (barnyardgrass; 31 g ai/ha),Barnyardgrass plant response rating (0 to 100) (barnyardgrass; 62 g ai/ha),Plant response rating: Chickweed (chickweed; 31 g ai/ha),Plant response rating: Chickweed (chickweed; 62 g ai/ha),Plant response rating: Chickweed (chickweed; 125 g ai/ha),Plant response rating: Field Violet (field violet; 31 g ai/ha),Plant response rating: Field Violet (field violet; 62 g ai/ha),Plant response rating: Field Violet (field violet; 125 g ai/ha),Plant response rating: Oilseed Rape (oilseed rape; 31 g ai/ha),Plant response rating: Oilseed Rape (oilseed rape; 62 g ai/ha),Plant response rating: Oilseed Rape (oilseed rape; 125 g ai/ha),"Plant response rating: Foxtail, Green (foxtail, green; 62 g ai/ha)","Plant response rating: Foxtail, Green (foxtail, green; 125 g ai/ha)","Plant response rating, Ragweed (ragweed; 500 g ai/ha, approx. 10 d)",also measured
"CCOc1nc(-c2ccc(F)cc2)nn1Cc1ccnc(C(F)(F)F)c1 [Compound 8, 4-[[5-ethoxy-3-(4-fluorophenyl)-1H-1,2,4-triazol-1-yl]methyl]-2-(trifluoromethyl)pyridine]",100,100,80,100,100,100,98,100,80,85,85,70,75,90,70,75,100,100,100,–,"Plant response rating: Chickweed (chickweed; 250 g ai/ha): 90; Plant response rating: Field Violet (field violet; 250 g ai/ha): 100; pest or weed control at 125 g/ha (crabgrass, large; 125 g ai/ha): 100%; pest or weed control at 500 g/ha (crabgrass, large; 500 g ai/ha): 100%; Plant response rating: Oilseed Rape (oilseed rape; 250 g ai/ha): 100; Plant response rating: Foxtail, Green (foxtail, green; 250 g ai/ha): 100"
FC(F)(F)COc1nc(-c2ccccc2)nn1Cc1ccnc(C(F)(F)F)c1 [Compound 24],50,90,5,30,80,85,10,45,60,70,90,75,80,90,75,80,85,98,100,40,"Plant response rating: Chickweed (chickweed; 16 g ai/ha): 55; Plant response rating: Field Violet (field violet; 16 g ai/ha): 70; Plant response rating: Oilseed Rape (oilseed rape; 16 g ai/ha): 65; Plant response rating, Galium (galium [2]; 125 g ai/ha): 70; Plant response rating, Galium (galium [2]; 500 g ai/ha): 90; Plant response rating (0 to 100), Foxtail, Green (foxtail, green): 75"
CCOc1nc(-c2ccccc2)nn1Cc1ccnc(C(F)(F)F)c1 [Compound 27],95,95,90,95,100,100,70,90,95,100,100,75,80,80,85,90,100,100,100,100,"Plant response rating, Ragweed (ragweed; 125 g ai/ha): 90; Plant response rating: Chickweed (chickweed; 16 g ai/ha): 85; Plant response rating: Field Violet (field violet; 16 g ai/ha): 70; Plant response rating: Oilseed Rape (oilseed rape; 16 g ai/ha): 80; Plant response rating, Galium (galium [2]; 125 g ai/ha): 80; Plant response rating, Galium (galium [2]; 500 g ai/ha): 90; Plant response rating (0 to 100), Foxtail, Green (foxtail, green): 95"
COc1nc(-c2ccc(Cl)cc2)nn1Cc1ccnc(C(F)(F)F)c1 [Compound 28],–,–,–,–,–,–,–,–,70,70,90,80,100,100,75,75,85,85,100,40,"Plant response rating, Ragweed (ragweed; 125 g ai/ha): 10; Plant response rating: Chickweed (chickweed; 16 g ai/ha): 65; Plant response rating: Field Violet (field violet; 16 g ai/ha): 75; Plant response rating: Oilseed Rape (oilseed rape; 16 g ai/ha): 65; Plant response rating, Galium (galium [2]; 125 g ai/ha): 50; Plant response rating, Galium (galium [2]; 500 g ai/ha): 80; Plant response rating (0 to 100), Foxtail, Green (foxtail, green): 80"
Fc1ccc(-c2nc(OCC(F)(F)F)n(Cc3ccnc(C(F)(F)F)c3)n2)cc1 [Compound 30],95,95,60,65,85,98,40,85,80,100,100,98,95,100,75,100,100,100,100,80,"Plant response rating, Ragweed (ragweed; 125 g ai/ha): 80; Plant response rating: Chickweed (chickweed; 16 g ai/ha): 70; Plant response rating: Field Violet (field violet; 16 g ai/ha): 75; Plant response rating: Oilseed Rape (oilseed rape; 16 g ai/ha): 90; Plant response rating, Galium (galium [2]; 125 g ai/ha): 60; Plant response rating, Galium (galium [2]; 500 g ai/ha): 90; Plant response rating (0 to 100), Foxtail, Green (foxtail, green): 85"
